Assays:
Type in all cases: in vivo
[1] = tested on: bromegrass, downy (downy bromegrass, Bromus tectorum); experiment: Test D pre-/postemergence: bromegrass, downy
Procedure, shortened: (§1)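 Applied as a non-phytotoxic solvent formulation with surfactant, compounds were tested preemergence in silt loam and postemergence on seedlings 2 to 18 cm high in peat-vermiculite medium. Evaluation was visual, 0 meaning no effect and 100 complete control, at 14 to 21 days.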

[2] = tested on: mustard, wild (wild mustard, Sinapis arvensis); experiment: Test D pre-/postemergence: mustard, wild
Procedure, shortened: as §1

[3] = tested on: blackgrass (Alopecurus myosuroides); experiment: Test D pre-/postemergence: blackgrass
Procedure, shortened: as §1

[4] = tested on: oilseed rape (Brassica napus); experiment: Test D pre-/postemergence: oilseed rape
Procedure, shortened: as §1

soybean (Glycine max) = experiment: Test C pre-/postemergence: soybean
Procedure, shortened: (§2)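 Visual injury scored 0–100 (100 = complete control) against untreated controls after 13–15 greenhouse days. Surfactant-containing solvent formulations applied either to soil after sowing (loam/sand) or over 1- to 4-leaf plants, 2–18 cm tall.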

[5] = tested on: galium (catchweed bedstraw, Galium aparine); experiment: Test D pre-/postemergence: galium; details: Postemergence; for Plant response rating, Galium: scale 0 to 100
Procedure, shortened: as §1

kochia (Kochia scoparia) = experiment: Test D pre-/postemergence: kochia
Procedure, shortened: as §1

[6] = tested on: nightshade (eastern black nightshade, Solanum ptycanthum); experiment: Test C pre-/postemergence: nightshade; details: Preemergence
Procedure, shortened: as §2

[7] = tested on: foxtail, giant (giant foxtail, Setaria faberii); experiment: Test C pre-/postemergence: foxtail, giant
Procedure, shortened: as §2

[8] = Postemergence, 31 g ai/ha, scale 0 to 100 (0 no effect, 100 complete control)
[9] = Postemergence, 62 g ai/ha, scale 0 to 100 (0 no effect, 100 complete control)
[10] = Postemergence, 125 g ai/ha, scale 0 to 100, 0 no effect, 100 complete control
[11] = Postemergence, 16 g ai/ha, scale 0 to 100
[12] = Preemergence, 16 g ai/ha, scale 0 to 100 (0 no effect, 100 complete control)
[13] = Preemergence, 31 g ai/ha, scale 0 to 100 (0 no effect, 100 complete control)
[14] = Preemergence, 62 g ai/ha, scale 0 to 100
[15] = Preemergence, 125 g ai/ha, scale 0 to 100
[16] = Preemergence, 62 g ai/ha, scale of 0 to 100, 0 is no effect, 100 is complete control
[17] = Preemergence, 125 g ai/ha, scale 0 to 100, 0 no effect, 100 complete control
[18] = Preemergence, 250 g ai/ha, scale 0 to 100, 0 no effect, 100 complete control
[19] = 31 g ai/ha, scale 0 to 100 (0 no effect, 100 complete control)
[20] = 62 g ai/ha, scale 0 to 100 (0 no effect, 100 complete control)
[21] = 125 g ai/ha, scale 0 to 100, 0 no effect, 100 complete control
[22] = 31 g ai/ha, scale of 0 to 100, 0 is no effect, 100 is complete control
[23] = 62 g ai/ha, scale of 0 to 100, 0 is no effect, 100 is complete control
[24] = 250 g ai/ha, scale 0 to 100, 0 no effect, 100 complete control
[25] = Preemergence, 31 g ai/ha, scale of 0 to 100, 0 is no effect, 100 is complete control
[26] = Postemergence, 8 g ai/ha, scale 0 to 100
[27] = Postemergence, 250 g ai/ha, scale 0 to 100

Cc1nn(-c2ccc(F)c(C(F)(F)F)c2)nc1Oc1ccnc(C(F)(F)F)c1 [Compound 147]
Plant response rating: Bromegrass, Downy [1, 8]: 5
Plant response rating: Bromegrass, Downy [1, 9]: 15
Plant response rating: Bromegrass, Downy [1, 10]: 50
Plant response rating, Bromegrass, Downy [1, 11]: 5
Plant response rating, Bromegrass, Downy [1, 12]: 0
Plant response rating, Bromegrass, Downy [1, 13]: 5
Plant response rating, Bromegrass, Downy [1, 14]: 10
Plant response rating, Bromegrass, Downy [1, 15]: 15
Plant response rating: Mustard, Wild [2, 8]: 100
Plant response rating: Mustard, Wild [2, 9]: 100
Plant response rating: Mustard, Wild [2, 10]: 100
Plant response rating, Mustard, Wild [2, 11]: 95
Plant response rating, Mustard, Wild [2, 12]: 55
Plant response rating, Mustard, Wild [2, 13]: 60
Plant response rating, Mustard, Wild [2, 14]: 100
Plant response rating, Mustard, Wild [2, 15]: 95
Plant response rating: Blackgrass [3, 8]: 25
Plant response rating: Blackgrass [3, 9]: 30
Plant response rating: Blackgrass [3, 10]: 60
Plant response rating, Blackgrass [3, 11]: 15
Plant response rating, Blackgrass [3, 12]: 0
Plant response rating, Blackgrass [3, 13]: 0
Plant response rating, Blackgrass [3, 14]: 30
Plant response rating, Blackgrass [3, 15]: 40
Plant response rating: Oilseed Rape [4, 8]: 60
Plant response rating: Oilseed Rape [4, 9]: 95
Plant response rating: Oilseed Rape [4, 10]: 100
Plant response rating, Oilseed Rape [4, 11]: 25
Plant response rating, Oilseed Rape [4, 12]: 0
Plant response rating, Oilseed Rape [4, 13]: 0
Plant response rating, Oilseed Rape [4, 14]: 5
Plant response rating, Oilseed Rape [4, 15]: 15
Plant response rating, Soybean (soybean (Glycine max); [16]): 20
Plant response rating, Soybean (soybean (Glycine max); [17]): 20
Plant response rating, Soybean (soybean (Glycine max); [18]): 35
Plant response rating: Galium [5, 19]: 65
Plant response rating: Galium [5, 20]: 75
Plant response rating: Galium [5, 21]: 90
Plant response rating, Galium ([5]; 16 g ai/ha): 55
Plant response rating: Kochia (kochia (Kochia scoparia); [8]): 85
Plant response rating: Kochia (kochia (Kochia scoparia); [9]): 90
Plant response rating: Kochia (kochia (Kochia scoparia); [10]): 95
Plant response rating, Kochia (kochia (Kochia scoparia); [11]): 70
Plant response rating, Kochia (kochia (Kochia scoparia); [12]): 15
Plant response rating, Kochia (kochia (Kochia scoparia); [13]): 15
Plant response rating, Kochia (kochia (Kochia scoparia); [14]): 50
Plant response rating, Kochia (kochia (Kochia scoparia); [15]): 70
Plant response rating, Nightshade [6, 22]: 98
Plant response rating, Nightshade [6, 23]: 98
Plant response rating, Nightshade [6, 21]: 98
Plant response rating, Nightshade [6, 24]: 98
Plant response rating, Foxtail, Giant [7, 25]: 85
Plant response rating, Foxtail, Giant [7, 16]: 98
Plant response rating, Foxtail, Giant [7, 17]: 100
Plant response rating, Foxtail, Giant [7, 18]: 100

Cc1nn(-c2ccc(F)c(F)c2)nc1Oc1ccnc(C(F)(F)F)c1 [Compound 145]
Plant response rating: Bromegrass, Downy [1, 8]: 5
Plant response rating: Bromegrass, Downy [1, 9]: 10
Plant response rating: Bromegrass, Downy [1, 10]: 10
Plant response rating, Bromegrass, Downy [1, 26]: 5
Plant response rating, Bromegrass, Downy [1, 11]: 5
Plant response rating: Mustard, Wild [2, 8]: 75
Plant response rating: Mustard, Wild [2, 9]: 90
Plant response rating: Mustard, Wild [2, 10]: 100
Plant response rating, Mustard, Wild [2, 26]: 25
Plant response rating, Mustard, Wild [2, 11]: 70
Plant response rating: Blackgrass [3, 8]: 20
Plant response rating: Blackgrass [3, 9]: 25
Plant response rating: Blackgrass [3, 10]: 30
Plant response rating, Blackgrass [3, 26]: 5
Plant response rating, Blackgrass [3, 11]: 20
Plant response rating: Oilseed Rape [4, 8]: 50
Plant response rating: Oilseed Rape [4, 9]: 70
Plant response rating: Oilseed Rape [4, 10]: 100
Plant response rating, Oilseed Rape [4, 26]: 0
Plant response rating, Oilseed Rape [4, 11]: 50
Plant response rating, Soybean (soybean (Glycine max); [8]): 50
Plant response rating, Soybean (soybean (Glycine max); [9]): 50
Plant response rating, Soybean (soybean (Glycine max); [10]): 55
Plant response rating, Soybean (soybean (Glycine max); [27]): 60
Plant response rating, Soybean (soybean (Glycine max); [16]): 5
Plant response rating, Soybean (soybean (Glycine max); [17]): 5
Plant response rating, Soybean (soybean (Glycine max); [18]): 10
Plant response rating: Galium [5, 19]: 35
Plant response rating: Galium [5, 20]: 40
Plant response rating: Galium [5, 21]: 70
Plant response rating, Galium ([5]; 8 g ai/ha): 5
Plant response rating, Galium ([5]; 16 g ai/ha): 30
Plant response rating: Kochia (kochia (Kochia scoparia); [8]): 98
Plant response rating: Kochia (kochia (Kochia scoparia); [9]): 100
Plant response rating: Kochia (kochia (Kochia scoparia); [10]): 100
Plant response rating, Kochia (kochia (Kochia scoparia); [26]): 80
Plant response rating, Kochia (kochia (Kochia scoparia); [11]): 90
Plant response rating, Nightshade [6, 22]: 35
Plant response rating, Nightshade [6, 23]: 80
Plant response rating, Nightshade [6, 21]: 85
Plant response rating, Nightshade [6, 24]: 90
Plant response rating, Foxtail, Giant [7, 8]: 15
Plant response rating, Foxtail, Giant [7, 9]: 20
Plant response rating, Foxtail, Giant [7, 10]: 50
Plant response rating, Foxtail, Giant [7, 27]: 85
Plant response rating, Foxtail, Giant [7, 25]: 95
Plant response rating, Foxtail, Giant [7, 16]: 100
Plant response rating, Foxtail, Giant [7, 17]: 100
Plant response rating, Foxtail, Giant [7, 18]: 100

Reference: patent US9302999B2, “Substituted triazoles as herbicides” (E. I. DU PONT DE NEMOURS AND COMPANY, priority 2012, dated 2016)
